This is an account of results in patent US9133179B2, “2-methoxy-pyridin-4-yl-derivatives” (Actelion Pharmaceuticals Ltd., priority 2011, dated 2015).

Where two headings read alike, the source gives them in different places.

The subject of data set [1] is rat trachea rings. The experiment in a line: Measurement of isometric force development: constriction of rat trachea rings. The settings on record: for activation at 0.1 µM / activation at 1 µM: Rattus norvegicus; for activation at 0.1 µM: read-out: % trachea constriction at 0.1 μM; for activation at 1 µM: read-out: % trachea constriction at 1 μM.
Procedure: (§1) Measurement of Isometric Force Development
(§2) Female Wistar rats are euthanized by exposure to CO2. The tracheae are excised and rings from the lower segments are prepared. […] A resting force of 2 g (20 mN) is applied to the ring preparation, and changes in force generation are measured using an isometric force recorder (EMKA Technologies Inc., Paris, France). Viability of rings is assessed by exposure to a depolarizing concentration of KCl (50 mM). Contraction of trachea is expressed as a percentage of the response to KCl.
(§3) The compounds are prepared as stock solutions of 0.3 mM in pure DMSO.
Data set [2] addresses T1, human S1P1 (EDG1) receptor (Homo sapiens, UniProt P21453).
T1 construct: host or cells: U2OS (Tango EDG1-bla U2OS)
The experiment in a line: S1P1 β-arrestin recruitment (Tango) assay to determine EC50 values. It counts as cell-based. The settings on record: Tango-EDG1 bla U2OS cells, 16 h incubation.

In data set [3] the test system is circulating lymphocytes. The experiment in a line: Assessment of in vivo efficacy: circulating lymphocytes after oral administration to Wistar rats. On the set-up: species or system rat. The settings on record: 6 h after oral administration of 10 mg/kg, normotensive male Wistar rats, compared to vehicle group; for change in vivo at 10 mg/kg: Rattus norvegicus, Lymphocyte, read-out: Lymphocyte counts.

For data set [4], the system named is rat trachea rings.
Procedure: as §1, §2, §3
The mark [5] stands for this setting: in % of the constriction induced by 50 mM KCl.

T1 sequence (P21453 whole entry): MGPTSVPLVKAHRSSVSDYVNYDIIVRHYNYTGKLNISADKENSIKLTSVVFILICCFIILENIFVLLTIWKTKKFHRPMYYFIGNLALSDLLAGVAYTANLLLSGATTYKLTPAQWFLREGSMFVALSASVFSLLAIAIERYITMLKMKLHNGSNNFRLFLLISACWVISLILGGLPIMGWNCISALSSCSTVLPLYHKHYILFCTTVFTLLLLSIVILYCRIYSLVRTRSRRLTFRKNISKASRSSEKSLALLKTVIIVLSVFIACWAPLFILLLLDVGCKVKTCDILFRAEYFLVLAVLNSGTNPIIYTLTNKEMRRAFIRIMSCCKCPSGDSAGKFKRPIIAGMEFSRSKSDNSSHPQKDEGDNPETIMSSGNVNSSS

For the compound “4-((2-(4-(5-(2-Cyclopentyl-6-methoxypyridin-4-yl)-1,2,4-oxadiazol-3-yl)-2-ethyl-6-methylphenoxy)ethyl)amino)-4-oxobutanoic acid [Example 50]”, in data set [1] (setting [5]), the “% trachea constriction at 10 nM” value is recorded as under 5% and the “% trachea constriction at 30 nM” value amounted to 55%. In addition, in data set [1] (0.1 μM, in % of the constriction induced by 50 mM KCl), the “% trachea constriction at 0.1 μM” value came to 103%. In data set [2], this compound yielded an EC50 of 0.1 nM. For the same compound, the Lymphocyte counts in data set [3] is −57%. In data set [4], the “concentration at which significant (or KCl-comparable) rat trachea constriction is shown” value came to 100 nM.

As for `CCc1cc(-c2noc(-c3cc(OC)nc(C4CCCC4)c3)n2)cc(C)c1OCCCC(=O)O` [Example 6, 4-(4-(5-(2-Cyclopentyl-6-methoxypyridin-4-yl)-1,2,4-oxadiazol-3-yl)-2-ethyl-6-methylphenoxy)butanoic acid], in data set [1] (setting [5]), the “% trachea constriction at 10 nM” value was under 5%, the “% trachea constriction at 30 nM” value was under 5% and the “% trachea constriction at 0.3 μM” value stood at 91%. Besides, in data set [1], the activation at 0.1 µM was under 5% and the activation at 1 µM amounted to 110%. Moreover, in data set [1] (rat trachea rings), the “concentration at which significant (or KCl-comparable) rat trachea constriction is shown” value turned out to be 300 nM. Besides, the response in data set [2] was half-maximal at 0.2 nM (EC50). Moreover, in data set [3], the change in vivo at 10 mg/kg was -53%.

As to `CCc1cc(-c2noc(-c3cc(OC)nc(C4CCCC4)c3)n2)cc(C)c1OC[C@@H](O)CNC(CO)CO` [Example 4], the “% trachea constriction at 3 μM” value in data set [1] (3 μM, in % of the constriction induced by 50 mM KCl) is listed as under 5%. Moreover, the “% trachea constriction at 10 μM” value in data set [1] (10 μM, in % of the constriction induced by 50 mM KCl) was under 5%. Moreover, the “% trachea constriction at 30 μM” value in data set [1] (30 μM, in % of the constriction induced by 50 mM KCl) was under 5%. For the same compound, the activation at 1 µM in data set [1] was under 5%. For the same compound, in data set [2], a half-maximal response (EC50) required 6.6 nM. In addition, the change in vivo at 10 mg/kg in data set [3] is -65%.

In the case of `CCc1cc(-c2noc(-c3cc(OC)nc(C4CCCC4)c3)n2)cc(C)c1OCCN1CC(C(=O)O)C1` [Example 2, 1-(2-(4-(5-(2-Cyclopentyl-6-methoxypyridin-4-yl)-1,2,4-oxadiazol-3-yl)-2-ethyl-6-methylphenoxy)ethyl)azetidine-3-carboxylic acid], in data set [1] (setting [5]), the “% trachea constriction at 10 nM” value is on record as under 5%, the “% trachea constriction at 30 nM” value is reported as under 5% and the “% trachea constriction at 0.3 μM” value came out at 55%. For the same compound, in data set [1], the activation at 0.1 µM was under 5% and the activation at 1 µM came to 93%. In data set [2], this compound yielded an EC50 of 0.4 nM. Also, in data set [3], the change in vivo at 10 mg/kg is -70%.

For `CCc1cc(-c2noc(-c3cc(OC)nc(C4CCCC4)c3)n2)cc(C)c1OCCCNC(=O)CCC(=O)O` [Example 32, 4-((3-(4-(5-(2-Cyclopentyl-6-methoxypyridin-4-yl)-1,2,4-oxadiazol-3-yl)-2-ethyl-6-methylphenoxy)propyl)amino)-4-oxobutanoic acid], the “% trachea constriction at 0.3 μM” value in data set [1] (setting [5]) is 50%. Besides, in data set [1], the activation at 0.1 µM came to 27% and the activation at 1 µM stood at 105%. This compound yielded an EC50 in data set [2] of 0.072 nM. The change in vivo at 10 mg/kg in data set [3] was -65%.

With `CCc1cc(-c2nc(-c3cc(OC)nc(C4CCCC4)c3)no2)cc(C)c1OCCCC(=O)O` [Example 54, 4-(4-(3-(2-Cyclopentyl-6-methoxypyridin-4-yl)-1,2,4-oxadiazol-5-yl)-2-ethyl-6-methylphenoxy)butanoic acid], in data set [1] (setting [5]), the “% trachea constriction at 30 nM” value is on record as under 5% and the “% trachea constriction at 0.3 μM” value worked out at 55%. Moreover, in data set [1], the activation at 0.1 µM turned out to be 5.6% and the activation at 1 µM came to 76%. For the same compound, the EC50 in data set [2] is 0.1 nM. Moreover, in data set [3], the change in vivo at 10 mg/kg was -72%.
